PMC5228037, “Discovery and Mechanistic Characterization of Selective Inhibitors of H2S-producing Enzyme: 3-Mercaptopyruvate Sulfurtransferase (3MST) Targeting Active-site Cysteine Persulfide” (Scientific Reports, 2017)

What was measured:
[1] = Reactivity test toward 3MP and DTT (2nd screening, no enzyme); conditions: 50 μM 3MP, 40 μM DTT, no 3MST, mean±S.D. n = 4
Protocol: Reactivity of the hit compounds toward 3MP and DTT was examined. The final concentration of the compounds was 10 or 50 μM. The assay protocol was as follows: compounds were diluted with HSip-1 solution to 20 or 100 μM solution (10% DMSO) with a Multi-Drop Combi. Next, 3MP and DTT solution (10 μL, final concentrations: 50 μM 3MP and 40 μM DTT) was dispensed into the plates (total volume was 20 μL, 5% DMSO), and the plates were incubated at room temperature for 3 hr. The fluorescence of HSip-1 was measured (λex = 485 nm, λem = 520 nm) with a microplate reader (PHERAstar PLUS). Background control wells (i.e., no addition wells instead of addition of 3MP and DTT, n = 16) were also prepared for all plates.
Supplementary Note 3. […]
The second screening, which is a non-enzymatic assay, was performed to eliminate false-positive hit compounds such as naphthoquinone that react with the substrates, e.g., 3MP and DTT. Even in […]
μM 3MP and 40 μM DTT. The fluorescence increase in the presence or the absence of 3MP and DTT was regarded as 100% or 0% fluorescence signal, respectively, and we evaluated the ability of each compound (10 μM and 50 μM) to inhibit the fluorescence increase caused by the reaction with 3MP and DTT. In this assay, we selected compounds showing ‒25% ≤ inhibitory activity at both 10 and 50 μM ≤ 50% (545 compounds). Then, we further selected compounds showing more than 60% inhibitory activity in the previous confirmation test among 545 compounds (146 hit compounds) (Supplementary Fig. S7). These compounds were considered not to react with 3MP and DTT, at least in this concentration range. […]

[2] = Reactivity test toward H2S (3rd screening, cysteine-activated H2S donor); conditions: 40 μM H2S donor, 1 mM L-cysteine, 37 °C 60 min, mean±S.D. n = 4
Protocol: Reactivity of the hit compounds toward H2S was next examined. The final concentration of the compounds was 10 or 30 μM. The assay protocol was as follows. Compounds were diluted with HSip-1 and cysteine-activated H2S donor[22] solution to 20 or 60 μM solution (15.4% DMSO) with a Multi-Drop and a pipette. Next, 2 mM L-cysteine solution (10 μL, final concentration: 1 mM L-cysteine) was dispensed into the plates (total volume was 20 μL, DMSO 7.7%), and the plates were incubated at 37 °C for 1 hr. The fluorescence of HSip-1 was measured (λex = 490 nm, λem = 510 nm) with a microplate reader. Background control wells (i.e., no addition wells instead of addition of the cysteine-activated H2S donor, n = 16) were also prepared for all plates.
Supplementary Table S2. Inhibition (%) of fluorescence increase caused by H2S in the 3rd […]
Compound 10 µM Compound 30 µM Compound 10 µM Compound 30 µM
All data are presented as the mean±S.D. (n = 4). Conditions: Mixtures of 1 μM HSip-1, 10 or 30 μM test compound, 40 μM H2S donor, 1 mM ʟ-cysteine, and 7.7% DMSO (v/v) were incubated at 37 °C for 60 min. The control with DMSO alone instead of DMSO solution of test compound was taken as 0% inhibition, and the sample without H2S donor was taken as 100% inhibition. […]
directly react with H2S: For this assay, we synthesized a reported small-molecular H2S donorS2 that produces H2S by reacting with cysteine. Each compound (10 or 30 μM) was dissolved in a solution (30 mM HEPES buffer (pH 7.4)) containing 1 μM HSip-1, 40 μM H2S donor, 1 mM ʟ-cysteine and 7.7% (v/v) DMSO as a cosolvent, and the solution was incubated at 37 °C for 60 min. Then, the fluorescence intensities were measured to evaluate the amount of H2S in the solution […]

[3] = target: T1, recombinant purified m3MST (Mus musculus, UniProt Q99J99); experiment: Inhibitory activity toward purified m3MST by gas chromatography; format: biochemical; conditions: 10 μM compound; 50 μM 3MP, 40 μM DTT; room temperature 3 hr; mean±S.D. n = 2; read-out: Inhibitory activity toward recombinant purified m3MST (H2S production by gas chromatography)
T1 construct: made in house; host or cells: E. coli BL21
T1 sequence (Q99J99 1-297): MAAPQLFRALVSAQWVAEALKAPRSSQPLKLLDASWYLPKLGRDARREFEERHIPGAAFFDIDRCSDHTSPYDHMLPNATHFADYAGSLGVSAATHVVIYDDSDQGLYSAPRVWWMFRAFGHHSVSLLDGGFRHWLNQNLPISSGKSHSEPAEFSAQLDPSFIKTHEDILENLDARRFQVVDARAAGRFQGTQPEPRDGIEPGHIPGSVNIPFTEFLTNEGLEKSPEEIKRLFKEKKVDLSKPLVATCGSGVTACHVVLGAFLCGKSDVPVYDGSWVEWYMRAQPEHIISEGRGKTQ
Protocol: 1 μL of 1 mM compound (final 10 μM) was diluted with 89 μL of 3MST solution (final 3.8 μg/mL) or GST solution (2.2 μg/mL) in 30 mM HEPES buffer (pH 7.4) in a 30 mL collection vial (Iwaki). 10 μL of 3MP and DTT solution (final concentration: 50 μM 3MP and 40 μM DTT) was added to 90 μL of the mixture, then the vial was sealed with parafilm and incubated at room temperature for 3 hr. After addition of 200 μL of 1 M sodium citrate buffer (pH 6.0), the mixture was incubated at 37 °C for at least 10 minutes with shaking on rotary shaker to quench the enzymatic activity and facilitate release of H2S gas from the aqueous phase. A 2 mL sample of head-space gas (total, approximately 29.5 mL) was applied to a gas chromatograph (ODSA-P2, Alpha M.O.S. Japan). The concentrations of H2S were determined from a standard curve obtained with 0 to 4 nmol of Na2S, which is a source of H2S. The protocol is illustrated in Supplementary Fig. 9.
Compound Inhibitory activity
All data are presented as the mean±S.D. (n = 2).
Supplementary Figure S9. (a) Schematic illustration of 3MST inhibitor assay by gas chromatography. (b) Inhibitory activity toward recombinant purified m3MST. Conditions: Mixtures of 10 μM test compound, 3.8 μg/mL 3MST or 2.2 μg/mL GST, 50 μM 3MP, 40 μM DTT, and 1% (v/v) DMSO in 30 mM HEPES buffer (pH 7.4) were incubated at room temperature for 3 hr.
(1 picture or pasted object on this page, not shown here)

With `NC(=O)c1ccsc1NC(=O)CSc1nc2ccccc2c(=O)[nH]1` [compound 1] as the compound, how does the “No Enzyme: inhibition of HSip-1 fluorescence increase caused by 3MP and DTT” value ([1]; 10 μM compound) read?
The value was 10.1±6.2%.

And the “No Enzyme: inhibition of HSip-1 fluorescence increase caused by 3MP and DTT” value ([1]; 50 μM compound)?
Its value is 17.2±4.0%.

What about the “Inhibition (%) of fluorescence increase caused by H2S in the 3rd screening” value ([2]; 10 μM compound) of the same compound?
Its value is 0.2±3.5%.

And the “Inhibition (%) of fluorescence increase caused by H2S in the 3rd screening” value ([2]; 30 μM compound)?
Its value is 1.0±2.4%.

What about the inhibition at 10 µM [3] of the same compound?
The inhibition at 10 µM was 104 ± 2.7%.

Which “No Enzyme: inhibition of HSip-1 fluorescence increase caused by 3MP and DTT” value ([1]; 10 μM compound) does the source give for `Cc1sc2nc(SCC(=O)c3ccc(O)cc3O)[nH]c(=O)c2c1C` [compound 2] here?
Its value is 7.4±10.6%.

What about the “No Enzyme: inhibition of HSip-1 fluorescence increase caused by 3MP and DTT” value ([1]; 50 μM compound) of the same compound?
The value was -23.6±17.1%.

And the “Inhibition (%) of fluorescence increase caused by H2S in the 3rd screening” value ([2]; 10 μM compound)?
The value was 6.5±1.8%.

And the “Inhibition (%) of fluorescence increase caused by H2S in the 3rd screening” value ([2]; 30 μM compound)?
The value was 19.6±15.3%.

What about the inhibition at 10 µM [3] of the same compound?
Its inhibition at 10 µM is 93.4 ± 0.8%.

Which “No Enzyme: inhibition of HSip-1 fluorescence increase caused by 3MP and DTT” value ([1]; 10 μM compound) does the source give for `Cc1cc(=O)[nH]c(SCC(=O)c2cccc3ccccc23)n1` [compound 3] here?
The value was 7.4±5.5%.

What about the “No Enzyme: inhibition of HSip-1 fluorescence increase caused by 3MP and DTT” value ([1]; 50 μM compound) of the same compound?
The value was 6.3±4.5%.

What about the “Inhibition (%) of fluorescence increase caused by H2S in the 3rd screening” value ([2]; 10 μM compound) of the same compound?
Its value is -3.2±5.0%.

What about the “Inhibition (%) of fluorescence increase caused by H2S in the 3rd screening” value ([2]; 30 μM compound) of the same compound?
Its value is -3.5±3.9%.

What about the inhibition at 10 µM [3] of the same compound?
Its inhibition at 10 µM is 90.3 ± 12%.

For `O=C(O)c1cccc(NS(=O)(=O)c2ccccc2)c1` [compound 5], which “No Enzyme: inhibition of HSip-1 fluorescence increase caused by 3MP and DTT” value ([1]; 10 μM compound) is on record?
The value was 11.4±4.9%.

And the “No Enzyme: inhibition of HSip-1 fluorescence increase caused by 3MP and DTT” value ([1]; 50 μM compound)?
The value was 10.5±4.5%.

And the “Inhibition (%) of fluorescence increase caused by H2S in the 3rd screening” value ([2]; 10 μM compound)?
Its value is 2.5±4.5%.

And the “Inhibition (%) of fluorescence increase caused by H2S in the 3rd screening” value ([2]; 30 μM compound)?
Its value is -1.2±16.3%.

And the inhibition at 10 µM [3]?
The inhibition at 10 µM was 90.9 ± 0.9%.
